One data set concerns Proteus mirabilis. The data set can be described thus: In vitro antimicrobial susceptibility test (MIC50). It is filed as cell-based. How it is done:
(§1) A finafloxacin composition at pH 5.8 was compared to ciprofloxacin (pH 5.8) and ofloxacin (pH 5.8 and pH 7) compositions using standard in vitro antimicrobial susceptibility tests (M07-08 Methods for Dilution Antimicrobial Susceptibility Tests for Bacteria that Grow Aerobically; Approved Standard-Eighth Edition (January 2009, Clinical and Laboratory Standards Institute), herein incorporated by reference). Minimum inhibitory concentrations (MIC50) were determined using Gram-positive and Gram-negative test organisms commonly found in otic and ophthalmic infections. The MIC50 was the lowest concentration of antibiotic that prevented growth of the test organism, as determined visually by a lack of turbidity.
(§2) The results of the experiment are presented below in TABLE 1 (Gram-positive organisms) and TABLE 2 (Gram-negative organisms).

In data set [1] the test system is Staphylococcus aureus - Ciprofloxacin resistant. Kind of data set: In vitro antimicrobial susceptibility test (MIC50). It is filed as cell-based. How it is done:
as §1, §2

The subject of data set [2] is Pseudomonas aeruginosa - Ciprofloxacin resistant. The data set can be described thus: In vitro antimicrobial susceptibility test (MIC50). It is filed as cell-based. As to the method:
as §1, §2

Data set [3] deals with Staphylococcus epidermidis - Ciprofloxacin resistant. Kind of data set: In vitro antimicrobial susceptibility test (MIC50). The data set is classed as cell-based. As to the method:
as §1, §2

In data set [4] the test system is Staphylococcus aureus - Ciprofloxacin sensitive. The data set can be described thus: In vitro antimicrobial susceptibility test (MIC50). The data set is classed as cell-based. How it is done:
as §1, §2

The test system of a further data set is Enterococcus faecalis. The data set can be described thus: In vitro antimicrobial susceptibility test (MIC50). The data set is classed as cell-based. How it is done:
as §1, §2

Data set [5] relates to Staphylococcus epidermidis - Ciprofloxacin sensitive. The data set can be described thus: In vitro antimicrobial susceptibility test (MIC50). The data set is classed as cell-based. As to the method: as §1, §2
A further data set has as its system Escherichia coli. The data set can be described thus: In vitro antimicrobial susceptibility test (MIC50). It is filed as cell-based. As to the method: as §1, §2
A further data set relates to Streptococcus pneumonia. Kind of data set: In vitro antimicrobial susceptibility test (MIC50). The data set is classed as cell-based. The following applies: Streptococcus pneumoniae, N = 10. As to the method: as §1, §2
In another data set the test system is Pseudomonas otitidis. The data set can be described thus: In vitro antimicrobial susceptibility test (MIC50). The data set is classed as cell-based. Conditions: Metapseudomonas otitidis, N = 10. As to the method: as §1, §2
The subject of data set [6] is Pseudomonas aeruginosa - Ciprofloxacin sensitive. The data set can be described thus: In vitro antimicrobial susceptibility test (MIC50). The data set is classed as cell-based. As to the method: as §1, §2
A further data set deals with Haemophilia influenzae. The data set can be described thus: In vitro antimicrobial susceptibility test (MIC50). It is filed as cell-based. The following applies: N = 10. As to the method: as §1, §2
A short description of data set [7]: Ocular pharmacokinetic study following topical administration. The data set is classed as in vivo, New Zealand white rabbits. How it is done: FIGS. 3 and 4 present the results of ocular pharmacokinetic studies following topical administration of finafloxacin and ciprofloxacin compositions. The studies utilized New Zealand white rabbits, and 45 μl of 0.3% test composition was instilled bilaterally.

Data set [8] is described as follows: In vivo ototoxicity study, outer ear irritation. On the set-up: species or system Rabbit. Conditions: 0.3% pH 5.7, 0.3%, 0.6%, 1.0% pH 7.5 (0.3% Mg and BAC), 0.2 mL bid for 7 days followed by 7 day observations. From the text: TABLE 3 below presents the results of toxicity testing performed in two animals models (chinchilla and rabbit).
A short description of data set [9]: Ex vivo corneal perfusion model. The following applies: 0.1 mM test solutions at pH 7.3, ex vivo, FIG. 2. It is filed as in vitro ADME. How it is done: FIG. 2 presents comparative corneal perfusion data for several quinolone antimicrobials (including finafloxacin) using an ex vivo model. 0.1 mM test solutions at pH 7.3 of four quinolone antimicrobials were compared in the model.

In data set [10] the test system is Pseudomonas aeruginosa. The data set can be described thus: Rabbit keratitis model (similar test). The data set is classed as in vivo, New Zealand white rabbits. Conditions: finafloxacin compositions compared to CILOXAN.
Data set [11] concerns Pseudomonas aeruginosa. Kind of data set: Guinea pig model of acute otitis externa (AOE). It is filed as in vivo. Conditions: for eradication of Pseudomonas: 0.3% composition. As to the method: Guinea pig ears were slightly abraded and 200 μl of bacterial culture (10^8 CFU) of P. aeruginosa were instilled into each ear. Ears were lavaged with saline and plated onto Pseudomonas isolation media. FIGS. 1a-1d summarize the results of these studies. […] Lower concentration finafloxacin compositions (0.03% and 0.003%) still achieved very substantial 5-6 log reductions of Pseudomonas in the model. […] Using a lower concentration composition (0.03%, shown in FIG. 1c) finafloxacin achieved a 4 log CFU reduction in the single dose study.

Setting [12] is: at pH 5.8, N = 10, read-out: MIC50.

SMILES strings stand for the structures. Values after ≈ are worked out from the molar mass of the structure shown. Read-outs that look alike come from different tables or passages of the source.

In the case of `CC1COc2c(N3CCN(C)CC3)c(F)cc3c(=O)c(C(=O)O)cn1c23` (stereo not shown) [Ofloxacin], the MIC50 in the data set on Proteus mirabilis (setting [12]) was determined as 0.5 µg/mL (≈ 1.38 µM); against Proteus mirabilis (pH 7), 0.125 µg/mL (≈ 0.346 µM); in data set [1] (at pH 5.8, N = 12), 64 µg/mL (≈ 177 µM); in [1] (at pH 7, N = 12), 32 µg/mL (≈ 88.6 µM); in [2] (at pH 5.8, N = 11), 256 µg/mL (≈ 708 µM); in [2] (at pH 7, N = 11), 64 µg/mL (≈ 177 µM). Further, the MIC50 came to 32 µg/mL (≈ 88.6 µM) in data set [3] (at pH 5.8, N = 12); 16 µg/mL (≈ 44.3 µM) in data set [3] (at pH 7, N = 12); 1 µg/mL (≈ 2.77 µM) in data set [4] (at pH 5.8, N = 8); 0.25 µg/mL (≈ 0.692 µM) in [4] (at pH 7, N = 8); 16 µg/mL (≈ 44.3 µM) against Enterococcus faecalis (at pH 5.8, N = 10); 128 µg/mL (≈ 354 µM) against Enterococcus faecalis (at pH 7, N = 10). The MIC50 in data set [5] (at pH 5.8, N = 8) worked out at 1 µg/mL (≈ 2.77 µM); in [5] (at pH 7, N = 8), 0.25 µg/mL (≈ 0.692 µM); against Escherichia coli (at pH 5.8, N = 10), 512 µg/mL (≈ 1420 µM); against Escherichia coli (at pH 7, N = 10) it was 16 µg/mL (≈ 44.3 µM); with Streptococcus pneumonia (at pH 5.8) it was 2 µg/mL (≈ 5.53 µM); in the data set on Streptococcus pneumonia (at pH 7), 1 µg/mL (≈ 2.77 µM). Moreover, the MIC50 against Pseudomonas otitidis (at pH 5.8) was 1 µg/mL (≈ 2.77 µM); in the data set with Pseudomonas otitidis (at pH 7), 0.25 µg/mL (≈ 0.692 µM); in data set [6] (at pH 5.8, N = 14) it was 4 µg/mL (≈ 11.1 µM); in [6] (at pH 7, N = 14), 2 µg/mL (≈ 5.53 µM); against Haemophilia influenzae (at pH 5.8), 0.031 µg/mL (≈ 0.0858 µM); in the data set on Haemophilia influenzae (at pH 7), 0.031 µg/mL (≈ 0.0858 µM).
Regarding `N#Cc1c(N2C[C@@H]3NCCO[C@H]3C2)c(F)cc2c(=O)c(C(=O)O)cn(C3CC3)c12` [Finafloxacin, 8-cyano-1-cyclopropyl-6-fluoro-7-[(4aS,7aS)-hexahydropyrrolo[3,4-b]-1,4-oxazin-6(2H)-yl]-1,4-dihydro-4-oxo-3-quinolinecarboxylic acid], the “aqueous humor tissue concentration” value in data set [7] (rabbit, in vivo) is given as “comparable at later time points”. The “corneal stroma tissue concentration” value in data set [7] (rabbit, in vivo) is given as “comparable at later time points”. Moreover, the outer ear irritation entry in [8] is reported as “No indications”; in [8] (listed as finafloxacin), “did not demonstrate inner or outer ear irritation”. Also, the corneal perfusion entry in data set [9] is “better corneal perfusion properties than the ciprofloxacin test composition and demonstrates less perfusion relative to the ofloxacin test composition”. For the same compound, the MIC50 with Proteus mirabilis (setting [12]) was determined as 0.25 µg/mL (≈ 0.628 µM); in [1] (at pH 5.8, N = 12), 4 µg/mL (≈ 10 µM); in data set [2] (at pH 5.8, N = 11), 16 µg/mL (≈ 40.2 µM); in data set [3] (at pH 5.8, N = 12) it was 2 µg/mL (≈ 5.02 µM); in [4] (at pH 5.8, N = 8) it was 0.016 µg/mL (≈ 0.0402 µM); in the data set on Enterococcus faecalis (at pH 5.8, N = 10), 8 µg/mL (≈ 20.1 µM). Besides, the MIC50 in data set [5] (at pH 5.8, N = 8) was determined as 0.016 µg/mL (≈ 0.0402 µM); in the data set with Escherichia coli (at pH 5.8, N = 10) it was 4 µg/mL (≈ 10 µM); in the data set on Streptococcus pneumonia (at pH 5.8), 0.25 µg/mL (≈ 0.628 µM); against Pseudomonas otitidis (at pH 5.8), 0.125 µg/mL (≈ 0.314 µM); in [6] (at pH 5.8, N = 14), 1 µg/mL (≈ 2.51 µM); in the data set on Haemophilia influenzae (at pH 5.8), 0.008 µg/mL (≈ 0.0201 µM). Also, in the data set on Pseudomonas aeruginosa [10], the “Pseudomonas CFU reductions” value was “inferior Pseudomonas CFU reductions compared to CILOXAN®”. The “log reductions of Pseudomonas” value in the data set on Pseudomonas aeruginosa [11] (0.003% composition, two doses, FIG. 1a) was 5-6 log; with Pseudomonas aeruginosa [11] (0.03% composition, two doses, FIG. 1a), 5-6 log. In addition, in the data set on Pseudomonas aeruginosa [11] (0.03% and 0.3% compositions with BAC compared to self-preserved compositions, FIG. 1d), the “effect of preservative (BAC) on efficacy against Pseudomonas” value was “does not affect the efficacy”. Besides, the CFU reduction in the data set with Pseudomonas aeruginosa [11] (0.03% composition, single dose study, FIG. 1c) turned out to be 4 log CFU. Further, the “performance compared to ciprofloxacin and ofloxacin compositions” value in the data set on Pseudomonas aeruginosa [11] (0.03%, single dose study, FIG. 1c) is “performed as well as the ciprofloxacin composition and better than the ofloxacin composition”. Besides, the “eradication of Pseudomonas” value in the data set with Pseudomonas aeruginosa [11] (single dose study, FIG. 1b) is recorded as “almost complete eradication of Pseudomonas”; with Pseudomonas aeruginosa [11] (two separate doses, FIG. 1a), “almost complete eradication of Pseudomonas”. The “performance compared to ciprofloxacin” value in the data set on Pseudomonas aeruginosa [11] (tests summarized in FIG. 1a, two doses) was “performed as well as ciprofloxacin”.
As for `O=C(O)c1cn(C2CC2)c2cc(N3CCNCC3)c(F)cc2c1=O` [Ciprofloxacin], in data set [7] (45 μl of 0.3% test composition instilled bilaterally, topical, FIG. 3), the “corneal stroma tissue concentration” value is given as “greater concentrations immediately following instillation”. In addition, the “aqueous humor tissue concentration” value in [7] (45 μl of 0.3% test composition instilled bilaterally, topical, FIG. 4) was “greater concentrations immediately following instillation”. For the same compound, the MIC50 amounted to 0.125 µg/mL (≈ 0.377 µM) in the data set with Proteus mirabilis (setting [12]); 128 µg/mL (≈ 386 µM) in data set [1] (at pH 5.8, N = 12); 64 µg/mL (≈ 193 µM) in data set [2] (at pH 5.8, N = 11); 128 µg/mL (≈ 386 µM) in [3] (at pH 5.8, N = 12); 1 µg/mL (≈ 3.02 µM) in [4] (at pH 5.8, N = 8); 128 µg/mL (≈ 386 µM) against Enterococcus faecalis (at pH 5.8, N = 10). For the same compound, the MIC50 was 0.5 µg/mL (≈ 1.51 µM) in data set [5] (at pH 5.8, N = 8); 256 µg/mL (≈ 773 µM) against Escherichia coli (at pH 5.8, N = 10); 1 µg/mL (≈ 3.02 µM) against Streptococcus pneumonia (at pH 5.8); 0.25 µg/mL (≈ 0.754 µM) with Pseudomonas otitidis (at pH 5.8); 1 µg/mL (≈ 3.02 µM) in data set [6] (at pH 5.8, N = 14); 0.016 µg/mL (≈ 0.0483 µM) against Haemophilia influenzae (at pH 5.8).

The record behind these values is patent publication US8536167B2, “Methods for treating ophthalmic, otic, or nasal infections” (Alcon Research, Ltd., priority 2009, dated 2013).
